This experiment relates to MDA-MB-231 cells. Nature of the experiment: Effect of Taxol on HFFU-induced Ca2+ elevations (cell response index, CRI), live-cell calcium fluorescence imaging. It is filed as cell-based, human. Conditions: for normalized CRI (cell response index): 24 h treatment, HFFU stimulation, n=10, normalized to 0 nM = 1.0. Here is the method: In order to perform live-cell fluorescence imaging of target cells stimulated by HFFU, a HFFU stimulation system was added to an inverted epifluorescence microscope (Olympus 1X70). In order to generate the highly focused ultrasound beam for single cell stimulation, a 200-MHz press-focused LiNbO3 transducer (fc: 200 MHz and bandwidth: 29%) was used. The transducer was constructed with conventional transducer fabrication procedures (Lam et al., 2013). The focal length of the transducer was 1.3 mm and the f-number (F#) was 1.6. The measured beam width of the highly focused ultrasound beam was 17 μm, which was close to the predicted value of 12 μm (=focal length×wavelength) and approximately the size of a breast cancer cell. In order to generate the 200-MHz ultrasound beam, 200-MHz sinusoidal bursts from a function generator (Stanford Research Systems, Sunnyvale, Calif.) fed into a 50-dB power amplifier (525LA, ENI, USA) were used to drive the transducer. The resultant peak-to-peak (Vpp) voltages of the bursts were adjusted to 4, 8, 16, and 32 V. The duty factor was tuned to 1%, and the pulse repetition frequency (PRF) was 1 kHz.
Live-cell fluorescence imaging was carried out on the epifluorescence microscope to monitor the cytoplasmic Ca^2+ elevations elicited by HFFU in individual MDA-MB-231, MCF-7, SKBR3, and BT-474 cells labeled with Fluo-4 AM. Light from a mercury lamp was delivered to the cells for excitation after passing through an electronic shutter, an excitation bandpass filter (488±20 nm), a dichroic mirror (cut-off wavelength: 500 nm), and a 20×objective. Fluorescence emitted from the cells was then collected by the same objective and recorded using a high-sensitivity CCD camera (ORCA-Flash2.8, Hamamatsu, Japan) after passing through an emission bandpass filter (530±20 nm).
Fluo-4 AM was used for live-cell calcium fluorescence imaging. 10^5 cells were plated on 35 mm Petri dishes and incubated in the complete medium at 37° C. for 36 h before […] Fluo-4 AM solution, diluted with the external buffer solution, was added to the dishes. After the cells were incubated at room temperature for 30 min, the cells were thoroughly washed with external buffer solution and then time-lapse fluorescence imaging was initiated after the target cells were positioned at the beam focus. Fluorescence images were acquired at 1 Hz for t=300 s (exposure time: 300 ms), as the HFFU was switched on and off at t=50 s and t=200 s, respectively.
The program was written to obtain the mean normalized maximum calcium elevation value and a cell responding ratio from segmented images of target cells, semi-automatically. A cell responding ratio=the number of cells responding to HFFU/the number of total cells subjected to HFFU. More specifically, after fluorescence images of cells acquired at different time-points (0-300 s, step: 1 s) were averaged, the target cell receiving HFFU in the averaged image was selected and segmented by Otsu's method (Otsu, 1979), followed by the calculation of mean fluorescence intensities in the segmented regions of each image obtained at the indicated time-points. Temporal changes of the mean fluorescence in the target cell were then analyzed to determine whether calcium elevations were elicited by HFFU in the cell. The calcium elevation was here measured as the increase in the fluorescence intensity. […]

Take `CC(=O)O[C@H]1C(=O)[C@@]2(C)[C@H]([C@H](OC(=O)c3ccccc3)[C@]3(O)C[C@H](OC(=O)[C@H](O)[C@@H](NC(=O)c4ccccc4)c4ccccc4)C(C)=C1C3(C)C)[C@]1(OC(C)=O)CO[C@@H]1C[C@@H]2O` [Taxol]: the “reduction of the CRI relative to the untreated cells” value (1 nM Taxol) is reported as −50%. In addition, the “normalized CRI (cell response index)” value was determined as 0.52 (1 nM Taxol), 0.29 (10 nM Taxol) and 0 (100 nM Taxol). Further, where the note is “100 nM Taxol”, the “CRI remaining (reduced to)” value came out at 0%.

The record behind these values is patent US20200363399A1, “SYSTEM AND METHOD FOR DETERMINING TUMOR INVASIVENESS” (University of Southern California, priority 2012, published 2020).
